In the NIST ThermoML archive (doi:10.1016/j.fluid.2006.01.030):

Assay: xn = mol fraction of the nth substance listed
Conditions: Liquid

CCCCCCC [heptane] + CCO
viscosity [mPa·s]
Conditions | x2 = 0 | x2 = 0.125 | x2 = 0.25 | x2 = 0.375 | x2 = 0.5 | x2 = 0.625 | x2 = 0.75 | x2 = 0.875
293.15 K, 100 kPa, Capillary tube (Ostwald / Ubbelohde) method | 0.41 | 0.419 | 0.45 | 0.494 | 0.556 | 0.644 | 0.757 | 0.931
293.15 K, 20000 kPa, Falling or rolling sphere viscometry | 0.509 | 0.518 | 0.547 | 0.597 | 0.668 | 0.76 | 0.885 | 1.052
293.15 K, 40000 kPa, Falling or rolling sphere viscometry | 0.604 | 0.614 | 0.648 | 0.707 | 0.787 | 0.888 | 1.023 | 1.2
293.15 K, 60000 kPa, Falling or rolling sphere viscometry | 0.706 | 0.718 | 0.757 | 0.824 | 0.913 | 1.022 | 1.168 | 1.354
293.15 K, 80000 kPa, Falling or rolling sphere viscometry | 0.817 | 0.832 | 0.875 | 0.951 | 1.047 | 1.162 | 1.316 | 1.509
293.15 K, 100000 kPa, Falling or rolling sphere viscometry | 0.937 | 0.953 | 1.003 | 1.087 | 1.191 | 1.312 | 1.473 | 1.674
313.15 K, 100 kPa, Capillary tube (Ostwald / Ubbelohde) method | 0.333 | 0.336 | 0.354 | 0.383 | 0.421 | 0.475 | 0.55 | 0.66
313.15 K, 20000 kPa, Falling or rolling sphere viscometry | 0.408 | 0.413 | 0.429 | 0.464 | 0.508 | 0.567 | 0.65 | 0.766
313.15 K, 40000 kPa, Falling or rolling sphere viscometry | 0.487 | 0.495 | 0.513 | 0.553 | 0.602 | 0.666 | 0.756 | 0.877
313.15 K, 60000 kPa, Falling or rolling sphere viscometry | 0.57 | 0.579 | 0.599 | 0.644 | 0.699 | 0.768 | 0.864 | 0.989
313.15 K, 80000 kPa, Falling or rolling sphere viscometry | 0.658 | 0.666 | 0.69 | 0.739 | 0.8 | 0.874 | 0.974 | 1.102
313.15 K, 100000 kPa, Falling or rolling sphere viscometry | 0.751 | 0.758 | 0.786 | 0.838 | 0.906 | 0.984 | 1.088 | 1.217
333.15 K, 100 kPa, Capillary tube (Ostwald / Ubbelohde) method | 0.276 | 0.274 | 0.282 | 0.299 | 0.325 | 0.361 | 0.409 | 0.484
333.15 K, 20000 kPa, Falling or rolling sphere viscometry | 0.336 | 0.332 | 0.344 | 0.364 | 0.393 | 0.435 | 0.489 | 0.565
333.15 K, 40000 kPa, Falling or rolling sphere viscometry | 0.402 | 0.4 | 0.414 | 0.436 | 0.469 | 0.515 | 0.571 | 0.651
333.15 K, 60000 kPa, Falling or rolling sphere viscometry | 0.472 | 0.471 | 0.486 | 0.511 | 0.546 | 0.595 | 0.653 | 0.734
333.15 K, 80000 kPa, Falling or rolling sphere viscometry | 0.546 | 0.544 | 0.56 | 0.589 | 0.623 | 0.677 | 0.735 | 0.816
333.15 K, 100000 kPa, Falling or rolling sphere viscometry | 0.623 | 0.621 | 0.636 | 0.67 | 0.703 | 0.761 | 0.818 | 0.898
353.15 K, 100 kPa, Capillary tube (Ostwald / Ubbelohde) method | 0.232 | – | – | – | – | – | – | –
353.15 K, 20000 kPa, Falling or rolling sphere viscometry | 0.289 | 0.282 | 0.286 | 0.298 | 0.316 | 0.341 | 0.374 | 0.423
353.15 K, 40000 kPa, Falling or rolling sphere viscometry | 0.346 | 0.337 | 0.343 | 0.357 | 0.376 | 0.403 | 0.437 | 0.49
353.15 K, 60000 kPa, Falling or rolling sphere viscometry | 0.401 | 0.394 | 0.401 | 0.412 | 0.434 | 0.464 | 0.501 | 0.556
353.15 K, 80000 kPa, Falling or rolling sphere viscometry | 0.458 | 0.45 | 0.458 | 0.475 | 0.499 | 0.53 | 0.565 | 0.622
353.15 K, 100000 kPa, Falling or rolling sphere viscometry | 0.521 | 0.513 | 0.522 | 0.539 | 0.565 | 0.599 | 0.631 | 0.69
